These results are taken from patent US20230346827A1 (priority 2020, published 2023).

One assay deals with SARS-CoV-2. The following applies: incubation of SARS-CoV-2 with exogenous LMW-DS; cited from earlier work.
A further assay deals with human purified monocytes. The experiment in a line: Stimulated IL-6 release from human purified monocytes (ELISA). In kind it is cell-based. The following applies: 24 h, LMW-DS 60-600 µg/ml, heparin 2.0-20 µg/ml, dexamethasone 3.0 µM. How it is done: Peripheral blood mononuclear cells (PBMC) were isolated from healthy donors through Ficoll-Paque PLUS (GE Healthcare; 11778538) density centrifugation. Monocytes were purified using the EasySep™ human monocyte enrichment kit (StemCell) that purifies monocytes ‘untouched’ to maintain their phenotype.
Monocytes were cultured in the absence (unstimulated PBS vehicle controls) or presence of stimulation (LPS or peptidoglycan) in the absence (vehicle) or presence of LMW-DS (Tikomed AB, Viken, Sweden, WO 2016/076780; three concentrations; top concentration 600 µg/ml, 200 µg/ml and 60 µg/ml), heparin (2.0, 6.0 or 20 µg/ml; equivalent to 0.406, 1.218 and 4.06 units/ml; Sigma Aldrich) or dexamethasone (3.0 µM; Sigma Aldrich) for 24 hours at 37° C., 5% CO2. Following centrifugation, cell culture supernatants were removed and stored at -20° C. awaiting analysis for IL-6 by ELISA. Levels of IL-6 were quantified in the supernatant by ELISA (R&D systems) according to manufacturer’s instructions.

In assay [1] the test system is PBMC and HUVEC + TCR ligands. The experiment in a line: BioMAP SAg system. The assay is classed as cell-based, human. Particulars: annotated relative to vehicle controls. From the text:
Cell types and stimuli used in each system are as follows: 3C system [HUVEC + (IL-1β, TNFα and IFNy)], 4H system [HUVEC + (IL-4 and histamine)], LPS system [PBMC and HUVEC + LPS (TLR4 ligand)], SAg system [PBMC and HUVEC + TCR ligands], BT system [CD19+ B cells and PBMC + (α-IgM and TCR ligands)], BF4T system [bronchial epithelial cells and HDFn + (TNFα and IL-4)], BE3C system [bronchial epithelial cells + (IL-1β, TNFα and IFNy)], CASM3C system [coronary artery smooth muscle cells + (IL-1 β, TNFα and IFNy)], HDF3CGF system [HDFn + (IL-1β, TNFα, IFNy, EGF, bFGF and PDGF-BB)], KF3CT system [keratinocytes and HDFn + (IL-1β, TNFα, IFNy and TGFβ)], MyoF system [differentiated lung myofibroblasts + (TNFα and TGFβ)] and Mphg system [HUVEC and M1 macrophages + Zymosan (TLR2 ligand)].
Systems are derived from either single cell types or co-culture systems. Adherent cell types are cultured in 96 or 384-well plates until confluence, followed by the addition of PBMC (SAg and LPS systems). […] Soluble factors from supernatants are quantified using either HTRF® detection, bead-based multiplex immunoassay or capture ELISA. Overt adverse effects of test agents on cell proliferation and viability (cytotoxicity) are detected by sulforhodamine B (SRB) staining, for adherent cells, and alamarBlue® reduction for cells in suspension. […]

Consider sodium salt of dextran sulfate [LMW-DS], for which, in the assay on SARS-CoV-2, the “SARS-CoV-2 attachment to human epithelial cell lines” value was “reduces attachment”. The “LPS-stimulated IL-6 release” value in the assay on human purified monocytes (LPS 0.01 ng/ml) is “concentration dependent statistically significant inhibition”. Besides, in the assay on human purified monocytes (peptidoglycan 30 ng/ml), the “peptidoglycan-stimulated IL-6 release” value is given as “concentration dependent statistically significant increase”. In addition, the Increased biomarker activity entry in assay [1] is reported as “IL-8”.
